Patent publication US10703748B2, “Diazanaphthalen-3-yl carboxamides and preparation and use thereof” (Samumed, LLC, priority 2017, dated 2020)

Columns and labels:
[1] = tested on: Wnt-responsive Sp5-Luc reporter in SW480 colon carcinoma cells; assay: Screening assay for Wnt activity (Sp5-Luc reporter gene assay); details: Homo sapiens; for EC50: SW480; for inhibition at 10 µM: SW480, read-out: percent inhibition at 10 μM
[2] = tested on: α-smooth muscle actin (aSMA) positive LL29 cells; assay: Inhibition of the fibrotic process: αSMA staining in TGF-β1 treated LL29 fibroblasts from IPF patients; details: Homo sapiens, Fibroblast; for EC50: 96 h; for inhibition at 10 µM: read-out: percentage in parentheses after EC50 >10
[3] = tested on: IL-6; assay: IL-6 inhibition in LPS-stimulated human peripheral blood mononuclear cells (HTRF); details: Homo sapiens, PBMC; for EC50: 22 h; for inhibition at 10 µM: read-out: percentage in parentheses after EC50 >10
[4] = tested on: Tau phosphorylation at Ser396 (pSer396); assay: Tau phosphorylation at Ser396 (pSer396) in SH-SY5Y cells, ELISA / western blot; format: cell-based, human; details: Homo sapiens; SH-SY5Y cells, overnight (16-18 h); read-out: pSer396 Tau EC50;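 further: decrease in pSer396 Tau measured in lysates of treated cells by colorimetric ELISA or chemiluminescent western blot, same pSer396 antibody for both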
Method: Two days before treatment, cells were seeded onto 96 well plates at 5×10^4 cells/well.
The above synthesized compounds were screened using the cell assay procedure to assess decrease Tau phosphorylation at Ser396 (pSer396) described below.
Cells were lysed with RIPA buffer complemented with phosphatase and protease inhibitors then lysates were spun down at 12,000 g for 10 min to remove any cellular debris.

[5] = biological target: DYRK1A kinase (Homo sapiens, UniProt Q13627); assay: DYRK1A kinase activity (Ser/Thr 18 peptide Z-lyte FRET assay); format: biochemical; details: recombinant DYRK1A, 30 μM ATP, one hour at room temperature;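 further: kinase activity read as coumarin/fluorescein emission ratio after development step, with unphosphorylated and phosphorylated peptide forms setting 0% and 100% controls, values from dose-response curves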
[6] = tested on: SW480 colon carcinoma cells; assay: Cell viability assay (CellTiter-Glo); details: Homo sapiens; for EC50: SW480, 96 h; for inhibition at 10 µM: SW480, read-out: percent inhibition at 10 μM
[7] = tested on: secreted cytokines TNFα, IL-6 and KC-GRO; assay: Secreted cytokines in Lipopolysaccharide-stimulated BV-2 cells (Table 9 does not say which cytokine); format: cell-based, mouse; details: Mus musculus, BV-2, 5 h; read-out: EC50
Method: BV-2 cells (mouse microglial cells) were cultured in 1:1 DMEM medium supplemented with 10% FBS, and 1% penicillin/streptomycin.
BV-2 cells are plated at 35,000 cells/well in a volume of 100 μl for at least 4 hours before compounds are added. […] Compounds were added to cells overnight. […] Supernatant is removed and saved for further cytokine detection. The original plates with seeded cells were tested for cytotoxicity by measure of adenosine triphosphate (ATP) release by adding CellTiter-Glo® diluted 1:4 in distilled water (G7573, Promega) and transferring lysed cells to a completely black 96-well plate to be read with the Cytation3. Supernatant was then diluted 1:2 with a diluent from V-PLEX cytokine Kit and directly tested for the secreted cytokines TNFα, IL-6 and KC-GRO using electrochemiluminescence (Meso Scale Discovery). The standard curve for each cytokine was used to convert the electrochemiluminescent signal into pg of protein per mL.

[8] = biological target: GSK3β kinase (Homo sapiens, UniProt P49841); assay: GSK3β kinase activity (Ser/Thr 09 peptide Z-lyte FRET assay); format: biochemical; details: recombinant kinase, 46 μM ATP, one hour at room temperature; read-out: EC50
GSK3β kinase, sequence (P49841 whole entry): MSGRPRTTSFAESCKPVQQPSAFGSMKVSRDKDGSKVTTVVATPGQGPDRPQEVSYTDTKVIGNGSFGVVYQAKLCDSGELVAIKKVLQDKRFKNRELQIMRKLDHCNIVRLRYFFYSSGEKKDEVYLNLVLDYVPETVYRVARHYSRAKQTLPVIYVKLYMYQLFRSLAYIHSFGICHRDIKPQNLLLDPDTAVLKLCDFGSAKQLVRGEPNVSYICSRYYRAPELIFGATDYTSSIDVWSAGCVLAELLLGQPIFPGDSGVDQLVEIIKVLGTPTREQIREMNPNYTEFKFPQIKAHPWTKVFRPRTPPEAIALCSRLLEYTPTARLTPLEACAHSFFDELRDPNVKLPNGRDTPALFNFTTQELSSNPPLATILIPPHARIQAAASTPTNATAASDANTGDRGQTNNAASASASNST

| Structure (SMILES) | EC50 [1] | EC50 [3] | EC50 [4] | EC50 [5] | EC50 [6] | EC50 [7] | EC50 [8] | inhibition at 10 µM [1] | EC50 [2] | inhibition at 10 µM [3] | inhibition at 10 µM [6] | inhibition at 10 µM [2] |
| --- | --- | --- | --- | --- | --- | --- | --- | --- | --- | --- | --- | --- |
| CN(CC(=O)Nc1ncc2ccc(-c3cnn(C)c3)cc2n1)C1CCC1 [Compound 963, 2-(Cyclobutyl(methyl)amino)-N-(7-(1-methyl-1H-pyrazol-4-yl)quinazolin-2-yl)acetamide] | > 10000 nM | > 10000 nM | 1620 nM | 45 nM | > 10000 nM | 354 nM | 45 nM | 11.8% | 1570 nM | 5.4% | 27.9% |  |
| Cn1cc(-c2ccc3cnc(NC(=O)CN4CCOCC4)nc3c2)cn1 [Compound 985, N-(7-(1-Methyl-1H-pyrazol-4-yl)quinazolin-2-yl)-2-morpholinoacetamide] | > 10000 nM | > 10000 nM | 5400 nM | 126 nM | > 10000 nM | > 10000 nM | 35 nM | 5.5% | > 10000 nM | 3.2% | 9.6% | 51.7% |
| Cn1cc(-c2ccc3cnc(NC(=O)CC4CNCCO4)nc3c2)cn1 (stereo not drawn) [Compound 994, N-(7-(1-Methyl-1H-pyrazol-4-yl)quinazolin-2-yl)-2-(morpholin-2-yl)acetamide] | > 10000 nM | 8310 nM | > 10000 nM | 15 nM | > 10000 nM | 1300 nM | 776 nM | 11.5% | > 10000 nM |  | 24.8% | 0% |
| Cn1cc(-c2ccc3cnc(NC(=O)C4CCN(Cc5ncco5)CC4)nc3c2)cn1 [Compound 1003, N-(7-(1-Methyl-1H-pyrazol-4-yl)quinazolin-2-yl)-1-(oxazol-2-ylmethyl) piperidine-4-carboxamide] | > 10000 nM | > 10000 nM | 4500 nM | 25 nM | > 10000 nM | 1490 nM | 262 nM | 19.3% | > 10000 nM | 6.6% | 18.5% | 4.8% |
| Cn1cc(-c2ccc3cnc(NC(=O)C4CCN(Cc5ncccn5)CC4)nc3c2)cn1 [Compound 1007, N-(7-(1-methyl-1H-pyrazol-4-yl)quinazolin-2-yl)-1-(pyrimidin-2-ylmethyl)piperidine-4-carboxamide] | > 10000 nM | > 10000 nM | > 10000 nM | 106 nM | > 10000 nM | 1800 nM | 349 nM | 14.6% | > 10000 nM | 2.4% | 17.9% | 39.7% |
| Cn1cc(-c2ccc3cnc(NC(=O)CCc4ccccc4)nc3c2)cn1 [Compound 1101, N-(7-(1-Methyl-1H-pyrazol-4-yl)quinazolin-2-yl)-3-phenylpropanamide] | 2280 nM | > 10000 nM | 9500 nM | 20 nM | 4480 nM | 3100 nM | 55 nM |  | > 10000 nM | 10.6% |  | 12.7% |
| Cn1ncc(-c2ccc3cnc(NC(=O)C4CC5(C4)CN(CCF)C5)nc3c2)c1CN1CCCCC1 [Compound 1186, 2-(2-Fluoroethyl)-N-(7-(1-methyl-5-(piperidin-1-ylmethyl)-1H-pyrazol-4-yl)quinazolin-2-yl)-2-azaspiro[3.3]heptane-6-carboxamide] | > 10000 nM | > 10000 nM | 5400 nM | 42 nM | > 10000 nM | 5600 nM | 402 nM | 35.8% | > 10000 nM | 6.7% | 35.2% | 24.5% |
| Cn1cc(-c2ccc3cnc(NC(=O)C4CCN(CC5(C(F)(F)F)CC5)CC4)nc3c2)nn1 [Compound 1253, N-(7-(1-Methyl-1H-1,2,3-triazol-4-yl)quinazolin-2-yl)-1-((1-(trifluoromethyl)cyclopropyl)methyl)piperidine-4-carboxamide] | 1180 nM | > 10000 nM | 188 nM | 13 nM | > 10000 nM | > 10000 nM | 15 nM |  | > 10000 nM | 4.4% | 17.1% | 47.2% |
| CNC(=O)c1ccc(C(=O)Nc2ncc3ccc(-c4cn(C)nn4)cc3n2)cn1 [Compound 1278, N^2-Methyl-N^5-(7-(1-methyl-1H-1,2,3-triazol-4-yl)quinazolin-2-yl)pyridine-2,5-dicarboxamide] | 3700 nM | > 10000 nM | 5050 nM | 7 nM | 8530 nM | 7200 nM | 134 nM |  | > 10000 nM | 3% |  | 35.9% |
| CN1CCC(N(C)c2cc(C(=O)Nc3ncc4ccc(-c5cn(C)nn5)cc4n3)ccn2)CC1 [Compound 1288, 2-(Methyl(1-methylpiperidin-4-yl)amino)-N-(7-(1-methyl-1H-1,2,3-triazol-4-yl)quinazolin-2-yl)isonicotinamide] | 59 nM | > 10000 nM | 10000 nM | 6 nM | 1090 nM | 6100 nM | 177 nM |  | 8010 nM | 9.8% |  |  |
| Cc1cn2c(n1)CN(C(=O)Nc1ncc3ccc(-c4cnc(C)o4)cc3n1)CC2 [Compound 1491, 2-Methyl-N-(7-(2-methyloxazol-5-yl)quinazolin-2-yl)-5,6-dihydroimidazo [1,2-a]pyrazine-7(8H)-carboxamide] | > 10000 nM | > 10000 nM | 3700 nM | 39 nM | 8860 nM | 3900 nM | 166 nM | 25.2% | > 10000 nM | 2.6% |  | 6.1% |
| CN(C)[C@H]1CC[C@H](C(=O)Nc2ncc3ccc(-c4cncs4)cc3n2)CC1 [Compound 1518, trans-4-(Dimethylamino)-N-(7-(thiazol-5-yl)quinazolin-2-yl)cyclohexane-1-carboxamide] | > 10000 nM | > 10000 nM | 5400 nM | 14 nM | > 10000 nM | 1080 nM | 253 nM | 24.8% | 2610 nM | 30.1% | 25.3% |  |

More lines, main results first:

| EC50 [1] | EC50 [3] | EC50 [4] | EC50 [5] | EC50 [6] | EC50 [7] | EC50 [8] | Structure (SMILES) | inhibition at 10 µM [1] | EC50 [2] | inhibition at 10 µM [3] | inhibition at 10 µM [6] | inhibition at 10 µM [2] |
| --- | --- | --- | --- | --- | --- | --- | --- | --- | --- | --- | --- | --- |
| > 10000 nM | > 10000 nM | > 10000 nM | 7 nM | > 10000 nM | 3600 nM | 407 nM | O=C(Nc1ncc2ccc(-c3cncs3)cc2n1)C1CCN(C(=O)CN2CCCC2)CC1 [Compound 1524, 1-(2-(Pyrrolidin-1-yl)acetyl)-N-(7-(thiazol-5-yl)quinazolin-2-yl)piperidine-4-carboxamide] | 13.4% | 4780 nM | 50% | 18.1% |  |
| 663 nM | > 10000 nM | 1180 nM | 4 nM | 1040 nM | 336 nM | 207 nM | CN1CCN(c2cc(C(=O)Nc3ncc4ccc(-c5cncs5)cc4n3)ccn2)CC1 [Compound 1536, 2-(4-Methylpiperazin-1-yl)-N-(7-(thiazol-5-yl)quinazolin-2-yl)isonicotinamide] |  | 1130 nM | 49.6% |  |  |
| > 10000 nM | > 10000 nM | > 10000 nM | 27 nM | > 10000 nM | 3100 nM | 4180 nM | CN1CCC(C(=O)Nc2ncc3ccc(-c4cnsc4)cc3n2)CC1 [Compound 1598, N-(7-(Isothiazol-4-yl)quinazolin-2-yl)-1-methylpiperidine-4-carboxamide] | 15.5% | 1270 nM | 7.5% | 8.4% |  |
| > 10000 nM | > 10000 nM | 1100 nM | 21 nM | > 10000 nM | 2200 nM | 49 nM | CO[C@H]1CC[C@@H](C(=O)Nc2ncc3ccc(-c4nnc(C)s4)cc3n2)CC1 [Compound 1612, cis-4-Methoxy-N-(7-(5-methyl-1,3,4-thiadiazol-2-yl)quinazolin-2-yl)cyclohexane-1-carboxamide] | 37.9% | > 10000 nM | 6.3% | 23.8% | 42% |
| > 10000 nM | > 10000 nM | 402 nM | 25 nM | > 10000 nM | 436 nM | 8 nM | Cc1nnc(-c2ccc3cnc(NC(=O)C4CCN(C(=O)c5ccccc5)CC4)nc3c2)s1 [Compound 1625, 1-Benzoyl-N-(7-(5-methyl-1,3,4-thiadiazol-2-yl)quinazolin-2-yl)piperidine-4-carboxamide] | 37.3% | 1770 nM | 4% | 18.8% |  |
